Data: patent US6534514B1, “Kappa opioid receptor antagonists” (Regents of the University of Minnesota, priority 1993, dated 2003)
Read-outs that look alike come from different tables or passages of the source.

Columns and labels:
[1] = test system: rats that were selectively bred for high voluntary ethanol drinking; conditions: compared to peptidyl delta-opioid receptor antagonists; cited from earlier work
kappa opioid receptors = biological target: T1, kappa opioid receptors (Cavia porcellus, UniProt P41144); experiment: Guinea pig ileal longitudinal muscle (GPI), antagonism of ethylketazocine (EK); type: cell-based; conditions: for Selectivity κ/μ: GPI EK versus GPI morphine; for Selectivity κ/δ: GPI EK versus MVD DADLE; for kappa antagonist potency compared with norBNI: GPI, EK; for Kb: 15 min incubation, Ke=[antagonist]/(IC50 ratio-1)
T1 construct: a strip of longitudinal muscle with the myenteric plexus attached was prepared; from tissue; host or cells: guinea pig ileal longitudinal muscle with myenteric plexus (Dunkin-Hartley males)
Method: (§1) Physiological data for guinea pig ileal longitudinal muscle (GPI) was obtained by the methodology of H. P. Rang, “Stimulant Actions of Volatile Anaesthetics on Smooth Muscle,” Brit. […] In vivo assays were done s.c. on mice.
(§2) 1. Guinea Pig Ileal Longitudinal Muscle (GPI). Ilea from guinea pigs were taken approximately 10 cm from the ileocecal junction, and a strip of longitudinal muscle with the myenteric plexus attached was prepared by the method of […] et al., Brit. […] A 1 cm portion of this strip was then mounted between two platinum electrodes placed in a 10 ml organ bath and connected to an isometric transducer; contractions were recorded on a polygraph. Contractions of the ileal strip were initiated by supramaximal rectangular pulses in all preparations (80 V of 0.5 ms duration at a frequency of 0.1 Hz). […] The organ bath was maintained at 36°-37° C. The longitudinal muscle strip was allowed to equilibrate with continuous stimulation for a minimum of 90 min. Cumulative concentration-response curves were determined after drugs were added to the bath in preselected amounts and washed out with buffer after noting their maximum effects.
(§3) Concentration-response curves were obtained in the absence (control) and the presence of the antagonist are expressed as IC50 values. The IC50 ratio represents the IC50 in the presence of the antagonist divided by the control IC50 value in the same tissue. Therefore, a high IC50 ratio represents a correspondingly high degree of antagonism at a particular receptor. This IC50 ratio was employed to calculate the Ke value using the equation Ke=[antagonist]/(IC50 ratio-1). Therefore, a low Ke represents a correspondingly high degree of binding at a particular receptor.

delta opioid receptors = delta opioid receptors (Mus musculus, UniProt P32300); experiment: Mouse vas deferens (MVD), antagonism of DADLE (D); type: cell-based; design: Both vasa deferentia were dissected out of mice and mounted singly; from tissue; host or cells: mouse vas deferens (Swiss-Webster males) for A3; whole mouse in vivo for A7; conditions: antagonist 100 nM; agonist DADLE
Method: 2. Mouse Vas Deferens (MVD). This assay was performed according to the description by G. Henderson et al., Brit. […] Both vasa deferentia were dissected out of mice and mounted singly through two platinum ring electrodes in a 10 ml organ bath. The bath contained Krebs bicarbonate solution that was continuously bubbled with 95% O2 and 5% CO2. The organ bath was maintained at 37° C. The tissue was attached to an isometric transducer and stimulated transmurally with rectangular pulses ([…], 1 ms duration, supramaximal voltage). Drugs were added cumulatively to the bath in preselected amounts and washed out after noting their maximum effects.
as §3

mu opioid receptors = conditions: agonist morphine
Method: as §1, §2, §3

rat model of alcoholism = conditions: cited from earlier work
[2] = recovering alcoholics; cited from earlier work
delta opioid receptor = delta opioid receptor (Rattus norvegicus, UniProt P33533); conditions: cited from earlier work
[3] = antagonist 100 nM, agonist ethylketazocine
[4] = antagonist 100 nM, IC50 agonist + antagonist/IC50 agonist, agonist ethylketazocine
[5] = antagonist 10 nM, agonist ethylketazocine

T1 sequence (P41144 whole entry): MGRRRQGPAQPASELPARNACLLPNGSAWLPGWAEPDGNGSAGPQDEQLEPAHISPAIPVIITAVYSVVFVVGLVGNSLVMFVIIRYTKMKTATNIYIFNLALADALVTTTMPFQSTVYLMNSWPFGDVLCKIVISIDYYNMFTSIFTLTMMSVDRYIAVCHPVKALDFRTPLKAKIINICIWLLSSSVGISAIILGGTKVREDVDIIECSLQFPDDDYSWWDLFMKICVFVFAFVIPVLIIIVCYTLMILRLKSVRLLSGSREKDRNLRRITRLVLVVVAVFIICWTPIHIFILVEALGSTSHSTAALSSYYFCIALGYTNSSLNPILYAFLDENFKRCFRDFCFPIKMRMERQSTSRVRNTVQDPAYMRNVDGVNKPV
Sequence of delta opioid receptors (P32300 whole entry): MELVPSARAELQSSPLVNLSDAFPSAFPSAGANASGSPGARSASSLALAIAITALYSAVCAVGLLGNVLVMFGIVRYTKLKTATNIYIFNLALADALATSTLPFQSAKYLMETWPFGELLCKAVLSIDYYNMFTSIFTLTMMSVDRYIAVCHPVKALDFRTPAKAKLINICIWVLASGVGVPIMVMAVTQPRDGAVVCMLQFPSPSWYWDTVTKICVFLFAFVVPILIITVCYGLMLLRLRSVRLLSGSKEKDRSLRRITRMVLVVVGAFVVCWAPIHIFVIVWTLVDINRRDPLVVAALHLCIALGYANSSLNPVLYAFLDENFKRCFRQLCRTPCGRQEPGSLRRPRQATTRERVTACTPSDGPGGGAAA
Sequence of delta opioid receptor (P33533 whole entry): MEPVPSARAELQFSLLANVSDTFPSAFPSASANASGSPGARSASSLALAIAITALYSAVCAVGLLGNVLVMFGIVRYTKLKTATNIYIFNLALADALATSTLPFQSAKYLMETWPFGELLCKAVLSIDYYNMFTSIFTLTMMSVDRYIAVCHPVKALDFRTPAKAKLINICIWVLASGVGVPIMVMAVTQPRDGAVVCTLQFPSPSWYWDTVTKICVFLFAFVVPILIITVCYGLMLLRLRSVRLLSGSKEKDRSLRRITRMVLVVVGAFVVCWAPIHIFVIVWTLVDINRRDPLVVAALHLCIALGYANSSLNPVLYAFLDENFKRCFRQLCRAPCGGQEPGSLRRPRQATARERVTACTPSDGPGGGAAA

Oc1ccc2c3c1O[C@H]1c4oc5ccccc5c4C[C@@]4(O)[C@@H](C2)N(CC2CC2)CC[C@]314 [NTB]
suppression of ethanol drinking [1]: unexpectedly prolonged suppression of ethanol drinking

17-(Cyclopropylmethyl)-6,7-dehydro-4,5α-epoxy-3,14-dihydroxy-5′-[(N^2-butyramidino)methy]-6,7-2′,3′-indolomorphinan Dihydrochloride [Compound 5]
Selectivity κ/μ (kappa opioid receptors): 10 | Selectivity κ/δ (kappa opioid receptors): 62 | kappa antagonist potency compared with norBNI (kappa opioid receptors): more potent | Kb (kappa opioid receptors; [3]): 0.54 nM | IC50 ratio, EK (GPI) (kappa opioid receptors; [4]): 185 ± 49 | IC50 ratio, D (MVD) (delta opioid receptors): 3.00 ± 0.51 | IC50 ratio, M (GPI) (mu opioid receptors; antagonist 100 nM): 18.2 ± 3.9 | Ke, M (GPI) (mu opioid receptors; antagonist 100 nM): 5.84 nM

C=CCN1CC[C@]23c4c5ccc(O)c4O[C@H]2C(=O)CC[C@@]3(O)[C@H]1C5 [Naloxone, naloxone]
ethanol and water intake (rat model of alcoholism): suppress ethanol but not water intake

17-(Cyclopropylmethyl)-6,7-dehydro-4,5α-epoxy-3,14-dihydroxy-5′-[N-(β-diethylamino)ethylcarboxyamido]-6,7-2′,3′-indolomorphinan Dihydrochloride [Compound 38]
Selectivity κ/μ (kappa opioid receptors): 16 | Selectivity κ/δ (kappa opioid receptors): 329 | kappa antagonist potency compared with norBNI (kappa opioid receptors): more potent | IC50 ratio, EK (GPI) (kappa opioid receptors; [5]): 31.8 ± 7.7 | Ke, EK (GPI) (kappa opioid receptors; [5]): (10 nm) 0.320 nM | IC50 ratio, D (MVD) (delta opioid receptors): 1.95 ± 0.56 | IC50 ratio, M (GPI) (mu opioid receptors; antagonist 50 nM): 17.1 ± 2.1 | Ke, M (GPI) (mu opioid receptors; antagonist 50 nM): (50 nm) 3.14 nM

17-(Cyclopropylmethyl)-6,7-dehydro-4,5α-epoxy-3,14-dihydroxy-5′-[(N^2-acetamidino)methyl]-6,7-2′,3′-indolomorphinan Dihydrochloride [Compound 3]
Selectivity κ/μ (kappa opioid receptors): 9 | Selectivity κ/δ (kappa opioid receptors): 44 | Kb (kappa opioid receptors; [3]): 0.81 nM | IC50 ratio, EK (GPI) (kappa opioid receptors; [4]): 124 ± 33 | IC50 ratio, D (MVD) (delta opioid receptors): 2.81 ± 0.62 | IC50 ratio, M (GPI) (mu opioid receptors; antagonist 100 nM): 13.4 ± 2.2 | Ke, M (GPI) (mu opioid receptors; antagonist 100 nM): 8.04 nM

17-(Cyclopropylmethyl)-6,7-dehydro-4,5α-epoxy-3,14-dihydroxy-5′-[(N^2-3-methylpentanamidino)methyl]-6,7-2′,3′-indolomorphinan Dihydrochloride [Compound 2]
Selectivity κ/μ (kappa opioid receptors): 12 | Selectivity κ/δ (kappa opioid receptors): 310 | kappa antagonist potency compared with norBNI (kappa opioid receptors): more potent | Kb (kappa opioid receptors; [3]): 0.25 nM | IC50 ratio, EK (GPI) (kappa opioid receptors; [4]): 394 ± 97 | IC50 ratio, D (MVD) (delta opioid receptors): 1.19 ± 0.51 | IC50 ratio, M (GPI) (mu opioid receptors; antagonist 100 nM): 31.6 ± 10.7 | Ke, M (GPI) (mu opioid receptors; antagonist 100 nM): 3.27 nM

17-(Cyclopropylmethyl)-6,7-dehydro-4,5α-epoxy-3,14-dihydroxy-5 ′-[N^2-(4-dimethylaminobutyrylamidino)methyl]-6,7-2′,3′-indolomorphinan Trihydrochloride [Compound 44]
Selectivity κ/μ (kappa opioid receptors): 61 | Selectivity κ/δ (kappa opioid receptors): 250 | kappa antagonist potency compared with norBNI (kappa opioid receptors): more potent | kappa selectivity compared with norBNI (kappa opioid receptors; GPI/MVD): more selective | potency and selectivity among the compounds (kappa opioid receptors; GPI/MVD): greatest poteny and selectivity | potency and selectivity compared with norBNI (kappa opioid receptors; GPI/MVD): more potent and selective | Kb (kappa opioid receptors; [3]): 0.147 nM | IC50 ratio, EK (GPI) (kappa opioid receptors; [4]): 679 ± 273 | IC50 ratio, D (MVD) (delta opioid receptors): 2.71 ± 0.44 | IC50 ratio, M (GPI) (mu opioid receptors; antagonist 100 nM): 12.1 ± 3.4 | Ke, M (GPI) (mu opioid receptors; antagonist 100 nM): 9.01 nM

O=C1CC[C@@]2(O)[C@H]3Cc4ccc(O)c5c4[C@@]2(CCN3CC2CC2)[C@H]1O5 [naltrexone]
incidence of relapse [2]: reduce the incidence of relapse

17-(Cyclopropylmethyl)-6,7-dehydro-4,5α-epoxy-3,14-dihydroxy-5′-[N-(β-dimethylamino)ethylcarboxamido]-6,7-2′,3′-indolomorphinan Dihydrochloride [Compound 45]
Selectivity κ/μ (kappa opioid receptors): 6 | Selectivity κ/δ (kappa opioid receptors): 117 | Kb (kappa opioid receptors; [3]): 0.568 nM | IC50 ratio, EK (GPI) (kappa opioid receptors; [4]): 177 ± 54 | IC50 ratio, D (MVD) (delta opioid receptors): 1.51 ± 0.42 | IC50 ratio, M (GPI) (mu opioid receptors; antagonist 100 nM): 30.3 ± 3.6 | Ke, M (GPI) (mu opioid receptors; antagonist 100 nM): 3.41 nM

N,N-diallyl-Tyr-Aib-Aib-Phe-Leu-OH [ICI 174864]
duration of action (delta opioid receptor; ethanol drinking): very short duration of action | ethanol drinking (delta opioid receptor; in vivo): strongly inhibits ethanol drinking

17-(Cyclopropylmethyl)-6,7-dehydro-4,5α-epoxy-3,14-dihydroxy-51′-[(4-dimethylaminobutyryl)aminomethyl]-6,7-2′,3′-indolomorphinan Dihydrochloride [Compound 43]
Selectivity κ/μ (kappa opioid receptors): 10 | Selectivity κ/δ (kappa opioid receptors): 166 | kappa antagonist potency compared with norBNI (kappa opioid receptors): more potent | Kb (kappa opioid receptors; [3]): 0.505 nM | IC50 ratio, EK (GPI) (kappa opioid receptors; [4]): 199 ± 62 | IC50 ratio, D (MVD) (delta opioid receptors): 1.20 ± 0.72 | IC50 ratio, M (GPI) (mu opioid receptors; antagonist 100 nM): 19.0 ± 6.2 | Ke, M (GPI) (mu opioid receptors; antagonist 100 nM): 5.56 nM

Oc1ccc2c3c1O[C@H]1c4[nH]c5ccccc5c4C[C@@]4(O)[C@@H](C2)N(CC2CC2)CC[C@]314 [NTI, naltrindole]
suppression of ethanol drinking [1]: unexpectedly prolonged suppression of ethanol drinking

17-(Cyclopropylmethyl)-6,7-dehydro-4,5α-epoxy-3,14-dihydroxy-5′-[(N^2-propanamidino)methyl]-6,7-2′,3′-indolomorphinan Dihydrochloride [Compound 1]
Selectivity κ/μ (kappa opioid receptors): 14 | Selectivity κ/δ (kappa opioid receptors): 69 | Kb (kappa opioid receptors; [3]): 0.66 nM | IC50 ratio, EK (GPI) (kappa opioid receptors; [4]): 159 ± 43 | IC50 ratio, D (MVD) (delta opioid receptors): 2.28 ± 0.57 | IC50 ratio, M (GPI) (mu opioid receptors; antagonist 100 nM): 11.3 ± 2.6 | Ke, M (GPI) (mu opioid receptors; antagonist 100 nM): 9.71 nM

Oc1ccc2c3c1OC1c4[nH]c5c(c4CC4(O)C(C2)N(CC2CC2)CC[C@]314)C[C@@]1(O)C2Cc3ccc(O)c4c3[C@@]1(CCN2CC1CC1)[C@H]5O4 (some centres unmarked) [norBinaltorphimine, reference compound]
Kb (kappa opioid receptors; [3]): 0.56 nM | Ke, M (GPI) (mu opioid receptors; antagonist 100 nM): 14 nM

17-(Cyclopropylmethyl)-6,7-dehydro-4,5α-epoxy-3,14-dihydroxy-5′-[N^2-(N,N-dimethylglycinamidino)methyl]-6,7-2′,3′-indolomorphinan Trihydrochloride [Compound 42]
Selectivity κ/μ (kappa opioid receptors): 55 | Selectivity κ/δ (kappa opioid receptors): 111 | kappa antagonist potency compared with norBNI (kappa opioid receptors): more potent | kappa selectivity compared with norBNI (kappa opioid receptors; GPI/MVD): more selective | potency and selectivity compared with norBNI (kappa opioid receptors; GPI/MVD): more potent and selective | Kb (kappa opioid receptors; [3]): 0.183 nM | IC50 ratio, EK (GPI) (kappa opioid receptors; [4]): 547 ± 125 | IC50 ratio, D (MVD) (delta opioid receptors): 4.91 ± 1.38 | Ke, D (MVD) (delta opioid receptors): 25.6 nM | IC50 ratio, M (GPI) (mu opioid receptors; antagonist 100 nM): 10.0 ± 0.4 | Ke, M (GPI) (mu opioid receptors; antagonist 100 nM): 11.1 nM
